Experimental data: ChEMBL document CHEMBL4421731, “Small molecules inhibiting oncoprotein Myc” (2016)
One block for each compound: values may come before it. Calls of active or inactive are those of the source. The calls are words filed in the database; no cut-off is given here.

Legend:
[1] = biological target: Myc proto-oncogene protein (Homo sapiens) (UniProt P01106); assay: Inhibition of Myc in human melanoma cells assessed as reduction in Myc-transactivated thymidylate synthase gene expression; type: cell-based
[2] = biological target: Myc proto-oncogene protein (Homo sapiens) (UniProt P01106); assay: Inhibition of Myc in human melanoma cells assessed as increase in Myc-repressed p27kip1 gene expression; type: cell-based
BE(2)-C = assay: Growth inhibition of human BE(2)-C cells; type: functional, cell-based
Homo sapiens [3] = species on record: Homo sapiens; assay: Growth inhibition of N-Myc overexpressing human NBL-S cells; type: functional
Homo sapiens [4] = species on record: Homo sapiens; assay: Growth inhibition of N-Myc amplified human NBL-WN cells; type: functional
Melanoma cell line [5] = assay: Growth inhibition of human melanoma (#10) cells; type: functional, cell-based
Homo sapiens [6] = species on record: Homo sapiens; assay: Growth inhibition of human SHEP cells; type: functional
Melanoma cell line [7] = assay: Growth inhibition of human melanoma (#3) cells; type: functional, cell-based
IMR-32 = assay: Growth inhibition of human IMR32 cells; type: functional, cell-based
SH-SY5Y = assay: Growth inhibition of human SH-SY5Y cells; type: functional, cell-based
Melanocyte = assay: Growth inhibition of human melanocytes; type: cell-based
[8] = Intrinsic clearance in mouse liver microsomes at 1 uM in presence of NADPH by LC-MS/MS analysis; type: ADME, Microsome
[9] = Intrinsic clearance in human liver microsomes at 1 uM in presence of NADPH by LC-MS/MS analysis; type: ADME, Microsome
[10] = biological target: T1, N-myc proto-oncogene protein (Homo sapiens) (UniProt P04198); assay: Inhibition of N-Myc (unknown origin) expressed in rat Rat1A cells assessed as inhibition of cell growth incubated for 72 hrs by methylene blue staining based assay
T1 sequence (whole entry): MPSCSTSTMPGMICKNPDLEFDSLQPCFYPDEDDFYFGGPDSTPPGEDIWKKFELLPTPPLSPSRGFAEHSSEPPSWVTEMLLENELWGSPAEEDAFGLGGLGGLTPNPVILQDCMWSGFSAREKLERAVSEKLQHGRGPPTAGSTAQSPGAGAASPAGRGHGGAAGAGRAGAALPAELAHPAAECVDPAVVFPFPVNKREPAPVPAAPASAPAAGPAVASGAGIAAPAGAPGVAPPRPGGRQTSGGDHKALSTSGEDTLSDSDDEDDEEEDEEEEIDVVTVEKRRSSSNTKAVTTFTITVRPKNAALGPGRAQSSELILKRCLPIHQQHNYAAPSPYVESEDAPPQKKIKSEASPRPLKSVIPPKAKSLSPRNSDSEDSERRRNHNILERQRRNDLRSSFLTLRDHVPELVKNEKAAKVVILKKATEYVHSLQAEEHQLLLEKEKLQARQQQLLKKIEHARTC

[11] = biological target: Myc proto-oncogene protein (Homo sapiens) (UniProt P01106); assay: Inhibition of C-Myc (unknown origin) expressed in rat Rat1A cells assessed as inhibition of cell growth incubated for 72 hrs by methylene blue staining based assay
SK-MEL-103 = assay: Growth inhibition of human SK-MEL-103 cells; type: functional, cell-based
SK-MEL19 = assay: Growth inhibition of human SK-MEL-19 cells; type: functional, cell-based
[12] = Stability in mouse liver microsomes assessed as parent compound remaining at 1 uM incubated for 0 mins in presence of NADPH by LC-MS/MS analysis; type: ADME, Microsome; conditions: read-out: Stability
[13] = Stability in human liver microsomes assessed as parent compound remaining at 1 uM incubated for 0 mins in presence of NADPH by LC-MS/MS analysis; type: ADME, Microsome; conditions: read-out: Stability

Sequence of Myc proto-oncogene protein (Homo sapiens) (P01106 whole entry): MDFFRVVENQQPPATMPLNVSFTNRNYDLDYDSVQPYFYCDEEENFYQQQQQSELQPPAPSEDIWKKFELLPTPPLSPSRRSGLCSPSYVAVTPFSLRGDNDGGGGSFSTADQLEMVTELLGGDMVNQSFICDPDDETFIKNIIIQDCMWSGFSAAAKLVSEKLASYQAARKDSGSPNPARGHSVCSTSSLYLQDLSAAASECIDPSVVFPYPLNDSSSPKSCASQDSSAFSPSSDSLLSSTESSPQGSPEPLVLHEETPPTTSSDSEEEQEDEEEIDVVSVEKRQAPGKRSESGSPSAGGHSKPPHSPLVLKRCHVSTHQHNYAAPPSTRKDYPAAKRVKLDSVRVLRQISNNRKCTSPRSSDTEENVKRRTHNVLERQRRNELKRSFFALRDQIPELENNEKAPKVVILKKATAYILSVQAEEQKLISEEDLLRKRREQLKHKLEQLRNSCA

inhibition [1]: Active | inhibition [2]: Active
Compound: COc1ccc(OCC(=O)N/N=C\c2cc(O)c(O)c(Br)c2)c(Br)c1

inhibition [1]: Active | inhibition [2]: Active
Compound: COCc1cc(CN(C)C2CCCCC2)c(O)c2ncccc12
growth inhibition (GI) (BE(2)-C): Active | growth inhibition (GI) (Homo sapiens [3]): Active | growth inhibition (GI) (Homo sapiens [4]): Active | growth inhibition (GI) (Melanoma cell line [5]): Active | growth inhibition (GI) (Homo sapiens [6]): Active | growth inhibition (GI) (Melanoma cell line [7]): Active | growth inhibition (GI) (IMR-32): Active | growth inhibition (GI) (SH-SY5Y): Active | growth inhibition (GI) (Melanocyte): Non-Toxic

intrinsic clearance [8]: 270 µL/min/mg | intrinsic clearance [9]: 130 µL/min/mg | inhibition [10]: Active | inhibition [11]: Active
Compound: CCCN(CCC)Cc1c(C(=O)N/N=C/c2ccc(N(CC)CC)cc2O)nnn1-c1nonc1N

Compound: CC(C)=NNc1ncnc2[nH]cnc12
growth inhibition (GI) (SK-MEL-103): inactive | growth inhibition (GI) (SK-MEL19): inactive

inhibition [10]: Active | inhibition [11]: Active
Compound: Cc1ccc(/C=N/NC(=O)c2cc(-c3ccccc3)n[nH]2)c(O)c1

intrinsic clearance [8]: 100 µL/min/mg | intrinsic clearance [9]: < 20 µL/min/mg | inhibition [10]: Active | inhibition [11]: Active
Compound: CCN(CC)c1ccc(/C=N/NC(=O)Cn2c3ccccc3c(=O)c3ccccc32)c(O)c1

inhibition [1]: Active | inhibition [2]: Active
Compound: CCOc1cccc(/C=N/NC(=O)CSc2nc3ccccc3[nH]2)c1O
growth inhibition (GI) (BE(2)-C): Active | growth inhibition (GI) (Homo sapiens [3]): Active | growth inhibition (GI) (Homo sapiens [4]): Active | growth inhibition (GI) (Melanoma cell line [5]): Active | growth inhibition (GI) (Homo sapiens [6]): Active | growth inhibition (GI) (Melanoma cell line [7]): Active | growth inhibition (GI) (IMR-32): Active | growth inhibition (GI) (SH-SY5Y): Active | growth inhibition (GI) (Melanocyte): Non-Toxic

inhibition [10]: Active | remaining at 0 h, 1 µM [12]: 100% | remaining at 0 h, 1 µM [13]: 100% | inhibition [11]: Active
Compound: Nc1nonc1-n1nnc(C(=O)N/N=C/c2ccccc2O)c1CN1CCc2ccccc2C1

Compound: CN(C)CCCNc1cc(O)c2c(c1O)C(=O)c1ccccc1C2=O
growth inhibition (GI) (SK-MEL-103): inactive | growth inhibition (GI) (SK-MEL19): inactive

Compound: CCN(CC)C1CC(=O)N(c2cccc(Cl)c2)C1=O (centres undefined)
growth inhibition (GI) (SK-MEL-103): inactive | growth inhibition (GI) (SK-MEL19): inactive
